Values joined by “and” are separate entries in the source; they are usually repeats but may differ in a detail not shown here. Equal values may be shown once. Read-outs that look alike come from different tables or passages of the source.
Tests used:
human plasma [1] = assay: Chemical stability in plasma over the UC assay time course (T5hr/T1hr)
Description: (§2) Three replicates were run per experiment, with 4NT included as a reference compound in each to evaluate assay performance. All PFAS and 4NT, prepared at a 3 mM working stock, were added to human plasma to achieve a final, thoroughly mixed assay concentration of 10 μM, incubated at 37 °C for 1 h with shaking. […] After UC, the aqueous fraction (AF; i.e., supernatant devoid of plasma proteins/lipoproteins/fatty acids) was collected and transferred to a new tube. The second aliquot maintained at 37 °C was collected (T5hr). At the relevant time points, each volume of sample was combined with 3 volumes of vigorously mixed ice-cold acetonitrile with the labeled IS and stored for 10 min at −20 °C prior to centrifugation at 12,000× g for 10 min at 4 °C. The supernatant was collected and stored at <−70 °C until quantitative analysis. […] Furthermore, chemical stability in plasma over the assay time course was assessed using the T1hr and T5hr samples.
(§3) Percent chemical remaining at the end of the UC assay (T5hr/T1hr) was used to remove unstable chemicals from further evaluation.

human plasma [2] = assay: Ultracentrifugation (UC) plasma protein binding assay, fraction unbound in plasma (fup); conditions: for Mean fu: fraction unbound in human plasma, used for IVIVE
[3] = as above; conditions: both, human, plasma
human plasma [4] = conditions: cited from earlier work
human primary cells = conditions: cited from earlier work
[5] = test system: pooled human cryopreserved primary hepatocyte suspensions; conditions: cited from earlier work
[6] = In vitro-in vivo extrapolation (IVIVE) to Css and administered equivalent dose (AED); design: species or system human; conditions: for Clhep: IVIVE, hepatocyte Clint scaled to whole-liver clearance; for AED: administered equivalent dose from LOEC and Css; for Fub: fub=fup/(B:P), Fub set to 1 if needed; for CLint: scaled with HPGL 110 mill cells/g, Vl 1596 g
Procedure, shortened: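 Administered equivalent doses come from pairing modelled Css with literature in vitro LOECs. Css itself is predicted by IVIVE from experimental hepatic Clint, scaled up to whole-liver clearance in L/h, and experimental fraction unbound in plasma. That fraction was adjusted to unbound-in-blood via blood:plasma partitioning.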

[7] = Hepatic metabolic stability (hepatocyte clearance) assay, substrate depletion; format: in vitro ADME, human; conditions: both sexes, human
Procedure, shortened: (§1)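 Substrate depletion of 1 μM compound, 37 °C, with pooled human hepatocytes (50-donor, 50,000 cells/100 μL) in William's E; samples quenched in acetonitrile up to 240 min, triplicate time points. Intrinsic clearance (μL/min/million hepatocytes) and half-life derived from semi-log slope, background-adjusted using media-only and inactivated-cell controls; compounds with ≥50% abiotic loss at T120 excluded.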

in vitro = conditions: both, human, plasma
human plasma [8] = conditions: both, human, 5 h, 10 μM
Description: as §2, §3

[9] = test system: pooled human cryopreserved primary hepatocyte suspensions; assay: Hepatic metabolic stability (hepatocyte clearance) assay, substrate depletion; format: in vitro ADME
Procedure, shortened: as §1

human plasma [10] = conditions: both, human, 5 h, 10 μM; remark: listed apart in the source
[11] = Abiotic loss in negative controls of the hepatocyte clearance assay (cell-free media, metabolically inactivated hepatocytes); format: in vitro ADME
Procedure, shortened: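 Abiotic stability was checked with media-only and inactivated-hepatocyte controls, run at T0 and T240 or, on rerun, at more time points. Compound at 1 μM, 37 °C, acetonitrile quench. Loss rates served for background subtraction, and ≥50% loss by T120 meant exclusion.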

[12] = legacy PFAS included for comparison
[13] = BioSeek lowest-observed effect concentration used for AED
[14] = minimum lowest-observed effect concentration, BioSeek platform
[15] = Assuming 1 mg/kg/day dose rate, BW 70 kg
[16] = human steady-state plasma concentration, assuming 1 mg/kg/day dosage

With `Cc1ccc([N+](=O)[O-])cc1` [4-Nitrotoluene, 4-nitrotoluene, reference compound] the “Mean Stability (T5hr/T1hr)” value (human plasma [1]; mean over all UC runs and replicates, human plasma) was 0.816, the Fstable.Med (human plasma [1]; median fraction stable in plasma, UC assay Level4) was 0.779 and the “Stability (T5hr/ T1hr), Run-specific Avg” value (human plasma [1]; run-specific average) was 0.82 and 0.84 and 0.81 and 0.78. For the same compound, the Fup.Med (human plasma [2]; median fraction unbound in plasma, UC assay Level4) was 0.0679, the Fup.point (human plasma [2]; point estimate of fraction unbound in plasma, UC assay Level4) was 0.0612 and the “Fraction Unbound (fu), Run-specific Avg” value (human plasma [2]; run-specific average) was 0.0534 and 0.08. It also gave a fraction unbound at 5 h, 10 μM ([3]; Fraction Unbound (fu), Run-specific Avg, run-specific average) of 0.06 and a fraction unbound at 5 h, 10 μM ([3]; Mean Fu (fraction unbound), mean over all UC runs and replicates, human plasma) of 0.0581.

In the case of `N.O=C(O)C(F)(F)C(F)(F)C(F)(F)C(F)(F)C(F)(F)C(F)(F)C(F)(F)F` [Ammonium perfluorooctanoate (PFOA), Ammonium perfluorooctanoate, reference compound], the fup (human plasma [4]; [12]) is listed as 0.0006, the LOEC (human primary cells; [13]) is listed as 2.00 µM and the LOEC (human primary cells; [14]) is listed as 2 µM. The “In Vitro Clint” value [5, 12] was 0.27 μL/min/10^6 cells, the Mean fu (human plasma [2]) was 0.0006 and the Css [6, 15] was 282.38 mg/L and 681.96 uM. It also gave a Clhep [6] of 0.003 L/h, an AED [6] of 0.0029 mg/kg/day and a Fub [6] of 0.001091. It also gave a Css [6, 16] of 681.96 µM, a Css ([6]; human steady-state plasma concentration, assuming 1 mg/kg/day dosage, listed as PFOA) of 682 µM and a CLint [6] of 47401.2 µL/min.

For `NS(=O)(=O)C(F)(F)C(F)(F)C(F)(F)C(F)(F)C(F)(F)C(F)(F)C(F)(F)C(F)(F)F` [Perfluorooctanesulfonamide, reference compound], the fup (human plasma [4]) is given as 0.0039, the LOEC (human primary cells; [13]) is given as 2.00 µM and the LOEC (human primary cells; [14]) is given as 2 µM. For the same compound, the “In Vitro Clint” value [5] was 11.93 μL/min/10^6 cells, the hepatocyte CLint at 1 μM ([7]; hepatocytes, in vitro CLint) was 11.9 µL/min/1e6 cells and the fraction unbound at 5 h, 10 μM (in vitro; Mean fu) was 0.0039. For the same compound, the Css [6, 15] was 3.16 mg/L and 6.33 uM, the Clhep [6] was 0.882 L/h and the AED [6] was 0.3157 mg/kg/day. The Fub [6] was 0.007091, the Css [6, 16] was 6.33 µM and the CLint [6] was 2094431 µL/min.

With `OCC(F)(F)OC(F)(F)C(F)(F)OC(F)(F)C(F)(F)OC(F)(F)CO` [1H,1H,11H,11H-Perfluorotetraethylene glycol] the Fstable.Med (human plasma [8]) was 0.989, the “Mean Stability” value (human plasma [8]) was 1.051 and the “Stability (T5hr/ T1hr), Run-specific Avg” value (human plasma [8]) was 0.998. The PPB_Stab_Fail (human plasma [8]; plasma) was 0, the LOEC (human primary cells; [13]) was 2.00 µM and the LOEC (human primary cells; [14]) was 2 µM. The “Concentration (nM), Time 240 min” value ([9]; both, human, 240 min, 1 μM) was 88.3883 nM, the “Linear Regression Results, Best-Fit Values, Slope” value ([9]; hepatocyte time course) was -0.01215 and the half-life at 1 μM ([7]; hepatocytes) was 0.951 h. It also gave a hepatocyte CLint at 1 μM ([7]; hepatocytes, Bkgd-Sub Clearance (µL/min/106 hepatocytes)) of 19.9 µL/min/1e6 cells, a hepatocyte CLint at 1 μM ([7]; hepatocytes, In Vitro Clint) of 19.9 µL/min/1e6 cells and a hepatocyte CLint at 1 μM ([7]; hepatocytes, Linear Regression Results, Best-Fit Values, Clearance) of 24.3 µL/min/1e6 cells. It also gave a hepatocyte CLint at 1 μM ([7]; hepatocytes, Unadj Clint) of 24.3 µL/min/1e6 cells, a hepatocyte CLint at 1 μM ([7]; hepatocytes, Unadj in vitro Clint) of 24.3 µL/min/1e6 cells and a hepatocyte CLint at 1 μM ([7]; hepatocytes, clearance rate in hepatocytes) of 20 µL/min/1e6 cells. For the same compound, the hepatocyte CLint at 1 μM ([7]; s9, Clint.1.Med) was 5.23 µL/min/1e6 cells, the fraction unbound at 5 h, 10 μM (in vitro; Fraction Unbound (fu), replicates A, B, C) was 0.0147 and the fraction unbound at 5 h, 10 μM (in vitro; Mean Fu) was 0.013. The fraction unbound at 5 h, 10 μM (in vitro; Mean fu) was 0.0128, the Fup.Med (human plasma [10]) was 0.0115 and the Fup.point (human plasma [10]) was 0.0127. For the same compound, the “No Cells BkgdCl, Clearance” value ([11]; 1 μM) was 4.374, the half-life at 1 μM ([11]; both sexes, human, hepatocytes) was 4.08 h and the “HT BkgdCl, Clearance” value ([11]; both, human, 1 μM) was 5.666. For the same compound, the Hep_Stab_Fail ([11]; both, human, 120 min, 1 μM) was 0, the half-life at 1 μM ([11]; buffer) was 5.28 h and the “HT BkgdCl, Slope” value ([11]; heat treated hepatocytes control, 0 vs 240 min) was -0.002833. The “No Cells BkgdCl, Slope” value ([11]; no cells control, 0 vs 240 min) was -0.002187, the Css [6, 15] was 0.61 mg/L and 1.50 uM and the Clhep [6] was 4.634 L/h. For the same compound, the AED [6] was 1.3364 mg/kg/day, the Fub [6] was 0.02327 and the Css [6, 16] was 1.50 µM. It also gave a CLint [6] of 3498911 µL/min.

For `O=S(=O)([O-])C(F)(F)C(F)(F)C(F)(F)C(F)(F)C(F)(F)C(F)(F)C(F)(F)C(F)(F)F.[K+]` [Potassium perfluorooctanesulfonate, reference compound], the fup (human plasma [4]; [12]) is given as 0.0040, the LOEC (human primary cells; [13]) is given as 7.00 µM and the LOEC (human primary cells; [14]) is given as 7 µM. The “In Vitro Clint” value [5, 12] was 1.81 μL/min/10^6 cells, the Mean fu (human plasma [2]) was 0.004 and the Css [6, 15] was 15.71 mg/L and 31.41 uM. For the same compound, the Clhep [6] was 0.138 L/h, the AED [6] was 0.2229 mg/kg/day and the Fub [6] was 0.007273. It also gave a Css [6, 16] of 31.41 µM and a CLint [6] of 317764 µL/min.

From publication PMC10223284, “Category-Based Toxicokinetic Evaluations of Data-Poor Per- and Polyfluoroalkyl Substances (PFAS) using Gas Chromatography Coupled with Mass Spectrometry” (Toxics, 2023)
